Assay results as given in patent publication US7939639B2, “Functional role of adrenomedullin (AM) and the gene related product (PAMP) in human pathology and physiology” (The United States of America as represented by the …, priority 1995, dated 2011).
Where “and” joins values, the source holds several entries; their conditions need not be identical. Identical values can stand only once. Entries after “also recorded” stand apart in the source; their conditions may differ.

Legend:
C. albicans = assay: Germination assay, C. albicans; format: cell-based, Candida albicans
Method: Data were compiled from 11 experiments. Germination was determined by incubating colonies of C. albicans that were harvested from an overnight growth on SDA and suspended on RPMI-1640 containing concentrations of AM from 8 to 85 μM. Organisms were incubated at 37° C. and germination was measured at 2 h and 4 h by reading 100 to 200 organisms per concentration per time point in each experiment. Percent germination was assessed as the proportion of blastoconidia of C. albicans bearing the characteristic parallel-walled tubular element to the total number of blastoconidia.

[1] = tested on: RINm, N289, TR4, CRL 2057, CRL 1777, CRL 2055; assay: Insulin secretion of insulin-producing cell lines; format: cell-based; settings: six insulin-producing cell lines
Description: A similar mechanism has been described for amylin (R. A. Pittner et al., J. Cell. Biochem. 55S, 19 (1994)).

Isoelectric point = format: physicochemical
[2] = Oral glucose tolerance test in nonanesthetized rats; format: in vivo, Sprague-Dawley rats
Method: Glucose tolerance tests were performed on Sprague-Dawley rats (250 to 300 g) in the presence (◯) or absence (●) of AM. […] Glucose tolerance methods have been published previously (Brown, et al., Proc. Soc. Exp. Biol. Med. 150, 557 (1975)). Six rats were administered a glucose solution (400 mg/100 g body weight) via gastric intubation. Ocular blood samples were collected at intervals following glucose loading, and glucose concentration was determined by a calorimetric assay (Sigma). Blood insulin levels were determined on the same samples by radioimmunoassay (Amersham). Three days later, the same rats received 1 μL, of AM (60 μM) per g body weight through intravenous injection and tolerance tests were repeated. Data are means±standard deviations for the six animals. Two-tailed Student's test was performed to determine statistical significance. (*) indicates statistical significance (p<0.01).

S. aureus = assay: Micro-/macrodilutional assays, S. aureus; format: cell-based, Staphylococcus aureus; settings: microdilutional or macrodilutional assays
Method: (§1) Inhibition of growth of E. coli was assessed in a microdilutional timed kill assay. (See FIG. 22) Bacteria and Candida albicans were grown overnight on trypticase soy agar (TSA) and Sobouraud dextrose agar (SDA) plates, respectively, were suspended into RPMI-1640 medium (Bio-Whittaker) and adjusted to a final concentration of 8×10^3 cfu/ml in […] in plastic microdilution trays. […] Plates were incubated at 37° C. with gentle agitation over 24 hours. At 6 hr and 24 hr time points, 10 to […] aliquots from each well were quantitatively cultured by serial 100-fold dilutions onto TSA and SDA plates.
(§2) Data were compiled from six experiments. Macrodilution assays were performed in 12×75 mm borosilicate glass tubes. Organisms were grown and harvested, as described in Roilides, E., et al., J Infect Dis. 163:579 (1991), and adjusted to a final inoculum concentration of 8×10^3 cfu/ml in 400 μl. […] Tubes were incubated at 37° C. with gentle agitation over 24 hours. At 6 and 24 hour time points, 100 μl aliquots from each tube were quantitatively cultured by serial 100-fold dilutions onto TSA and SDA plates.

[3] = tested on: tumor cell lines (lung, colon, breast, brain, and ovary); format: cell-based, human; settings: R0-grown cultures; AM 0.1 μM to 100 μM, 0.1 nM to 100 nM
Description: Results Obtained by Immunohistochemical (IHc) and in situ RT-PCR examination of paraffin-embedded RO-adapted cell lines were consistent with previously reported data on normal lung and pathological lung specimens (Martinez, A., et al., Endocrinology 136:4099-4105 (1995)). […] To further investigate this suspected phenomenon, MTT assay techniques were used to examine the effects of AM on the growth of several diverse tumor cell lines (lung, colon, breast, brain, and ovary). […] Since the test cells were known to produce authentic AM peptide, we assumed that this inability to stimulate growth with extrinsic ligand could possibly mean that the cells has already achieved maximal proliferative effects using their own AM.
i. Growth Assays: MTT techniques were performed as previously described (Nakanishi, Y. F., et al., Exper. Cell Biol. 56:74-85 (1988)). In brief, a single cell suspension of 2×10^5 cells/ml (50 μl/well) is seeded into 96-well PVC plates and an appropriate concentration of MoAb-G6 and AM was added in a volume of 50 μl. The assay is performed in TIS medium (RMPI 1640 plus 10 μg/ml transferrin, 10 μg/ml insulin and 3×10^−8M sodium selenite). […] The Biorad Microplate Manager plate reader and software was used to determine the change in number of viable cells from dye reduction measured by absorbance at 570 nm. […]

P. aeruginosa = assay: Micro-/macrodilution timed kill assay, P. aeruginosa; format: cell-based, Pseudomonas aeruginosa; settings: 24 hours exposure compared with 6 hours incubation
Method: as §1, §2

E. coli = assay: Macrodilution assay, E. coli; format: cell-based, Escherichia coli; settings: E. coli
Method: as §2

MCF-7 = assay: MTT growth assay, MCF-7; format: cell-based, human
Method: i. Growth Assays: MTT techniques were performed as previously described (Nakanishi, Y. F., et al., Exper. Cell Biol. 56:74-85 (1988)). In brief, a single cell suspension of 2×10^5 cells/ml (50 μl/well) is seeded into 96-well PVC plates and an appropriate concentration of MoAb-G6 and AM was added in a volume of 50 μl. The assay is performed in TIS medium (RMPI 1640 plus 10 μg/ml transferrin, 10 μg/ml insulin and 3×10^−8M sodium selenite). After 5 days growth at 37° C., 5% CO2, in a humid incubator, the dye and solubilization solutions were added from the Promega Proliferation Assay (Madison, Wis.), which is a variation of the MTT assay (Carmichael, Y. F., et al., Cancer Res. 47:943-946 (1987)). The Biorad Microplate Manager plate reader and software was used to determine the change in number of viable cells from dye reduction measured by absorbance at 570 nm.

CC[C@H](C)[C@H](NC(=O)[C@H](CCC(N)=O)NC(=O)[C@H](Cc1c[nH]cn1)NC(=O)[C@H](C)NC(=O)[C@H](CC(C)C)NC(=O)[C@H](CCCCN)NC(=O)[C@H](CCC(N)=O)NC(=O)[C@@H](NC(=O)[C@@H](NC(=O)[C@@H]1CSSC[C@H](NC(=O)CNC(=O)[C@H](Cc2ccccc2)NC(=O)[C@H](CO)NC(=O)[C@H](CCCNC(=N)N)NC(=O)[C@H](CC(C)C)NC(=O)CNC(=O)[C@H](CCC(N)=O)NC(=O)[C@H](Cc2ccccc2)NC(=O)[C@H](CC(N)=O)NC(=O)[C@H](CC(N)=O)NC(=O)[C@H](CCSC)NC(=O)[C@H](CO)NC(=O)[C@H](CCC(N)=O)NC(=O)[C@H](CCCNC(=N)N)NC(=O)[C@@H](N)Cc2ccc(O)cc2)C(=O)N[C@@H](CCCNC(=N)N)C(=O)N[C@@H](Cc2ccccc2)C(=O)NCC(=O)N[C@@H]([C@@H](C)O)C(=O)N1)[C@@H](C)O)C(C)C)C(=O)N[C@@H](Cc1ccc(O)cc1)C(=O)N[C@@H](CCC(N)=O)C(=O)N[C@@H](Cc1ccccc1)C(=O)N[C@H](C(=O)N[C@@H](CC(=O)O)C(=O)N[C@@H](CCCCN)C(=O)N[C@@H](CC(=O)O)C(=O)N[C@@H](CCCCN)C(=O)N[C@@H](CC(=O)O)C(=O)N[C@@H](CC(N)=O)C(=O)N[C@H](C(=O)N[C@@H](C)C(=O)N1CCC[C@H]1C(=O)N[C@@H](CCCNC(=N)N)C(=O)N[C@@H](CO)C(=O)N[C@@H](CCCCN)C(=O)N[C@H](C(=O)N[C@@H](CO)C(=O)N1CCC[C@H]1C(=O)N[C@@H](CCC(N)=O)C(=O)NCC(=O)N[C@@H](Cc1ccc(O)cc1)C(N)=O)[C@@H](C)CC)C(C)C)[C@@H](C)O [AM]
suppression of germination of C. albicans, 2 hours (C. albicans; 2 hours incubation): non-significant trend in the suppression of germination; also recorded: not significant | inhibition of germination of C. albicans, 4 hours (C. albicans; increasing concentrations of AM (8 to 85 μM), 4 hours incubation): significant inhibition of germination | change in insulin secretion rate [1]: no change in insulin secretion rate; also recorded: not directly affected | isoelectric point (Isoelectric point): 9.7 and 10.2 | insulin levels versus control ([2]; 20 min after intravenous injection of AM): Significant differences | duration of block of insulin secretion ([2]; after intravenous injection of AM (1 μL of 60 μM per g body weight)): at least 20 min | levels of circulating glucose versus control ([2]; after intravenous injection of AM, 1 h): significantly higher; also recorded: highly significant | growth suppressive activity against S. aureus (S. aureus): ineffective; also recorded: no apparent growth suppressive activity | EC50 (rat mast cells): 7.9 ± 3.9 µM | stimulation of growth by exogenous AM [3]: ineffective in stimulating growth | antimicrobial activity against P. aeruginosa, 24 hours versus 6 hours (P. aeruginosa): greater antimicrobial activity | antimicrobial activity, macrodilution, 6 hours (E. coli; 6 hours incubation): no activity | antimicrobial activity, macrodilution, 24 hours (E. coli; 24 hours incubation): somewhat more active than PAMP; also recorded: slightly more active than PAMP | growth suppression by synthetic AM alone (MCF-7; AM 10 μM (FIG. 12B)): ≈ 10% | reversal of MoAb-G6 growth inhibition by exogenous AM (MCF-7; MCF-7): abrogated
